The test system of one data set is CHO-K1 cells. The experiment in a line: cells. In kind it is cell-based, Chinese hamster. The following applies: for CHOK1 48 h EC10: Chinese hamster; for EC50: Cricetulus griseus, CHO-K1, 48 h, read-out: CHOK1 48 h EC50. The protocol: A cell growth assay using the MTS reagent was conducted to assess the general toxicity of each chalcone compound. Briefly, cell growth was assayed in sterile 96-well microtiter plates (Costar 3599, Corning Inc., Corning, NY, USA) in the presence of each chalcone. Experiments were conducted in triplicate. In a typical experiment, there are two plates. The first is the control plate, which allows one to assess the starting cell population on the day of drug addition (Day 0). The second plate is the test plate where cells are plated and tested with different drug concentrations on Day 0. For example, either CHO cells or Hs27 cells were plated in a 200 µL volume at 1000 cells/well on both the control and test plates and incubated overnight to allow the cells to adhere. On Day 0, 1 μL of PBS was added to the control plate wells so that their total volume was 201 μL. MTS reagent (Promega Cell Titer 96 Aqueous non-radioactive cell proliferation reagent, Promega, Madison, WI, USA) was added (20 μL) to each well on the control plate, and that plate was incubated for 4 h in a 5% CO2 atmosphere at 37 °C and then read on the plate reader.
On Day 0, 1 μL of a 200× stock solution of each chalcone was added to the respected well on the test plate, and each condition was tested in triplicate. Drug solutions were prepared in advance in 100% DMSO and dosed so that the final DMSO concentration was 0.5%. For example, 1 μL of chalcone solution was added to the cells plated in each well in 200 μL of media. Of note, the respective chalcone addition occurred after an initial overnight incubation of each cell line in each well to reach Day 0 (the drugging day). After the chalcone was added, the cells were incubated in 5% CO2 for 48 h at 37 °C. After 48 h, the MTS reagent (Promega, Madison, WI, USA) was added (20 μL), and the test plates were incubated for an additional 4 h, and then, absorbance at 490 nm was measured on a BioTek Synergy MX plate reader. […] IC50 values were determined from the corresponding plot of relative absorbance at 490 nm vs. the drug concentration.
For highly colored materials like the chalcones, it is important to consider the contribution of the compound’s own absorbance to the MTS assay. To correct for the absorbance contribution of the chalcone itself, we measured each chalcone’s absorbance (Chalcone Abs) at 490 nm at the respective concentration (e.g., 10 µM) and subtracted the absorbance of the media background (blank Abs). This net value was then subtracted out of the Day 2 absorbance value to provide the % relative growth via the following equation:(1) % Relative Growth = (Day 2 Abs−Day 2 blank Abs)−Chalcone Abs−blank Abs−(Day 0 Abs−Day 0 blank Abs)/(Day 2 Control Abs −Day 2 blank Abs)−(Day 0 Abs−Day 0 blank Abs) ×100%
With the chalcones in hand, we then evaluated their growth-inhibition properties in Chinese hamster ovary (CHO-K1) cells and human Hs27 fibroblast cells. […] The results are shown in Table 2 along with a SAR summary of our findings in the host Hs27 cells.

Another data set relates to PIV5-GFP. The experiment in a line: PIV5-GFP viral GFP expression in Hs27 cells by flow cytometry. In kind it is cell-based, parainfluenza virus 5. The following applies: for Inhibition of GFP expression, pre-infection treatment only: 10 µM for 24 h before infection, media lacking chalcone after; for Ability to reduce viral GFP expression (Figure 4B screen): 10 µM chalcone before and after infection; for GFP-positive cells, chalcone added at 0 or 6 hpi: 10 µM added at 0 (or 6) hpi, DMSO ~80%; for Effect on number of GFP-positive cells, chalcone added at 18 hpi: 10 µM added at 18 hpi; for GFP-positive cells: 10 µM chalcone 24 h before infection and after, DMSO control ~80-82% GFP+; for % GFP relative to DMSO treated (10 µM): Hs27 cells infected with PIV5-GFP; for GFP-positive cells, virus spread, chalcone added at 0 and 24 hpi: 10 µM added at 0 and 24 hpi, DMSO nearly 60%; for Inhibition of virus spread, chalcone added at 48 and 72 hpi: 10 µM added at 48 and 72 hpi. As to the method:
Parainfluenza virus 5 (PIV5) expressing green fluorescence protein (GFP) was derived from cDNA, grown at 37 °C in Madin–Darby bovine kidney (MDBK) cells and titered on CV-1 (African green monkey kidney) cells with a fibroblast morphology as previously described. MDBK and CV-1 cells were the kind gift of Dr. Robert Lamb (Northwestern University). Cells were infected with virus diluted in DMEM supplemented with 10% bovine serum albumin (BSA) for 1 h or mock infected with media alone. Following incubation, cells were washed with phosphate-buffered saline (PBS) and cultured in DMEM supplemented with 2% heat-inactivated (HI) FBS.
Chalcone treatments were performed in DMEM supplemented with 10% HI FBS at the indicated concentrations and for indicated periods of time. Chalcone stocks were reconstituted in 100% dimethyl sulfoxide (DMSO) at a concentration of 10 mM and were serially diluted to working concentrations in DMSO. DMSO control treatments to test the effect of the vehicle were performed at volumes corresponding to the volume of chalcone added during each experiment (i.e., 1 µL chalcone DMSO solution/1 mL DMEM [10 µM] utilized alongside the DMSO control of 1 µL/1 mL DMEM). For cytotoxicity assays, untreated controls were subtracted from DMSO and chalcone sample values to account for the background signal.
For cytotoxicity assays, cells were stained with propidium iodide (PI) at a dilution of 1:100. Cell viability was determined via flow cytometry using the CytoFLEX (Beckman Coulter, Brea, CA, USA). CytExpert software (Beckman Coulter, version 2.4) was used to analyze independent events. PIV5 infection was monitored using flow cytometry via the FITC channel by analyzing GFP expression of individual cells. ZIKV infection was monitored utilizing Flavivirus group antigen–antibody (D1-4G2-4-15; Novus Biologicals, Littleton, CO, USA) staining for the ZIKV envelope protein. Cells were fixed and permeabilized using eBioscience Intracellular Fixation and Permeabilization Buffer (Invitrogen, Thermo Fisher Scientific, MA, USA) according to the manufacturer’s instructions. Secondary staining was performed using an anti-Alexa Fluor 488 (AF488) antibody (Invitrogen, Thermo Fisher Scientific, MA, USA). OC43 infection was monitored utilizing a primary antibody targeted toward the OC43 nucleocapsid protein (NP, MAB9013, Sigma-Aldrich, St. Louis, MO, USA). Secondary staining was performed using an AF488 antibody. Cells were fixed and permeabilized as previously described. LACV infection was monitored utilizing an anti-LACV Gc 807.31ab antibody kindly provided by Andrew Pekosv. Secondary staining was performed using an AF488 antibody. Cells were fixed and permeabilized as previously described.
To measure the effect of chalcone treatment on PIV5 virus growth, Hs27 cells were infected with PIV5-GFP. This engineered negative sense single-stranded RNA virus expresses GFP, which serves as a genome-encoded protein readout. After entering a cell, PIV5 must first undergo primary transcription to convert its genome into mRNA. As genome replication begins, nascent genomes then become templates for further conversion to mRNA and viral gene expression becomes amplified in a process called secondary transcription. For viral proteins to be detectable in cell culture, this amplification must first take place, making the expression of GFP a direct indicator of whether secondary transcription has successfully occurred. […] As shown in the representative data in Figure 4A, ~82% of DMSO-treated PIV5-GFP infected cells were positive for GFP expression. This was reduced to ~2% GFP-positive cells after treatment with 8o. […] These chalcones were therefore selected for further screening for cytotoxicity.
The GFP IC50 was defined as the concentration of chalcone required to inhibit the GFP expression (as measured via flow cytometry) by 50% when compared to DMSO-treated cells. […]
A general note: In flow cytometry, cells or beads pass a laser one at a time.

[1] abbreviates: low MOI (0.1 in Figure 7), read at 96 hpi.

Structures are written as SMILES. Values joined by “and” are separate entries in the source; they are usually repeats but may differ in a detail not shown here. Equal values may be shown once.

What is called EC50 is the concentration at which the effect is half-maximal. Consider `COc1ccccc1/C=C/C(=O)c1ccccc1O` [Chalcone 8a], for which, in the data set with CHO-K1 cells, the “CHOK1 48 h EC10” value was 9.3 ± 0.6 µM and the EC50 came to 25.5 ± 2.7 µM. Besides, the “GFP-positive cells regardless of time of addition” value with PIV5-GFP (10 µM added at 0, 6 or 18 hpi, MOI 10, read at 42 hpi) was ~ 80%. Moreover, the “Inhibition of GFP expression, pre-infection treatment only” value (shortened to “Inhibition of GFP expression”) in the data set with PIV5-GFP (MOI 10, 24 hpi) was “no significant inhibition of GFP expression”. For the same compound, in the data set on PIV5-GFP (10 µM, Hs27 cells), the “Inhibition of viral gene expression, PIV5” value is listed as “did not inhibit viral gene expression”. Also, the “GFP-positive cells with increasing concentration” value with PIV5-GFP (2.5, 5, 7.5 or 10 µM before and after infection, MOI 10, 24 hpi) was ~ 80%. Besides, the “Effect on number of GFP-positive cells, virus spread, all times of addition” value in the data set on PIV5-GFP (low MOI (0.1 in Figure 7), 10 µM added at 0, 24, 48 or 72 hpi, read at 96 hpi) is on record as “modestly reduced”.

In the case of `COc1ccc(Br)cc1/C=C/C(=O)c1c(O)cccc1OC` [Chalcone 8f], in the data set on CHO-K1 cells, the “CHOK1 48 h EC10” value is listed as 2.5 ± 0.1 µM and the 50% effective concentration (EC50) was determined as 6.1 ± 0.8 µM. Further, in the data set with PIV5-GFP (MOI 10, 24 hpi), the “Ability to reduce viral GFP expression (Figure 4B screen)” value (from here on “Ability to reduce viral GFP expression”) is “most notable performance”.

Consider `COc1ccc(Br)cc1/C=C/C(=O)c1c(O)cccc1OCc1ccccc1` [Chalcone 8l], for which, in the data set on CHO-K1 cells, the “CHOK1 48 h EC10” value is listed as 5.2 ± 0.3 µM and the EC50 was found to be 8.1 ± 1 µM. The “Ability to reduce viral GFP expression” value with PIV5-GFP (MOI 10, 24 hpi) is “most notable performance”.

For the compound `CCOc1ccc(Br)cc1/C=C/C(=O)c1c(O)cccc1OCc1ccccc1` [Chalcone 8o], in the data set on CHO-K1 cells, the “CHOK1 48 h EC10” value was 7.0 ± 0.4 µM and the EC50 came out at 9.9 ± 0.7 µM. Moreover, in the data set with PIV5-GFP (MOI 10, read at 42 hpi), the “GFP-positive cells, chalcone added at 0 or 6 hpi” value is recorded as approximately 25% and the “Effect on number of GFP-positive cells, chalcone added at 18 hpi” value is “no significant effect”. In addition, in the data set on PIV5-GFP (MOI 10, 24 hpi), the GFP-positive cells is ~ 2% and 2.10% and < 10%; the “Ability to reduce viral GFP expression” value is on record as “most notable performance”; the “Inhibition of GFP expression” value is on record as “no significant inhibition of GFP expression”. Further, in the data set with PIV5-GFP (10 µM), the “% GFP relative to DMSO treated (10 µM)” value was found to be 14.6%. In the data set on PIV5-GFP (setting [1]), the “GFP-positive cells, virus spread, chalcone added at 0 and 24 hpi” value is reported as “less than 10%”; the “Inhibition of virus spread, chalcone added at 48 and 72 hpi” value is listed as “inhibition was not seen”.

On to `CCOc1ccc(Cl)cc1/C=C/C(=O)c1c(O)cccc1OCc1ccccc1` [Chalcone 8p], for which, in the data set on CHO-K1 cells, the “CHOK1 48 h EC10” value is reported as 8.2 ± 0.3 µM and the EC50 came out at 25.8 ± 1.1 µM. In the data set with PIV5-GFP (MOI 10, read at 42 hpi), the “GFP-positive cells, chalcone added at 0 or 6 hpi” value is reported as approximately 25% and the “Effect on number of GFP-positive cells, chalcone added at 18 hpi” value is “no significant effect”. In the data set with PIV5-GFP (MOI 10, 24 hpi), the GFP-positive cells was less than 10%; the “Ability to reduce viral GFP expression” value is on record as “most notable performance”; the “Inhibition of GFP expression” value is on record as “no significant inhibition of GFP expression”. Also, in the data set on PIV5-GFP (setting [1]), the “GFP-positive cells, virus spread, chalcone added at 0 and 24 hpi” value was “less than 10%”; the “Inhibition of virus spread, chalcone added at 48 and 72 hpi” value was “inhibition was not seen”.

With `COc1ccc(Br)cc1/C=C/C(=O)c1c(O)cccc1OCCC(C)C` [Chalcone 8s, (2E)-3-(5-Bromo-2-Methoxy-Phenyl)-1-[2-Hydroxy-6-(3-Methyl-Butoxy)-Phenyl]-Propenone], in the data set with CHO-K1 cells, the “CHOK1 48 h EC10” value was determined as 5.4 ± 0.3 µM and the EC50 amounted to 8.6 ± 0.3 µM. Further, the “Ability to reduce viral GFP expression” value with PIV5-GFP (MOI 10, 24 hpi) is “most notable performance”.

As to `CCOc1ccc(Br)cc1/C=C/C(=O)c1c(O)cccc1OCc1ccc(-c2ccccc2)cc1` [Chalcone 8v, (2E)-1-[2-(Biphenyl-4-Ylmethoxy)-6-Hydroxy-Phenyl]3-(5-Bromo-2-Ethoxy-Phenyl)-Propenone], in the data set on CHO-K1 cells, the “CHOK1 48 h EC10” value came out at 3.7 ± 0.3 µM and the EC50 was more than 50 µM. In addition, the “% GFP relative to DMSO treated (10 µM)” value in the data set with PIV5-GFP (10 µM) stood at 63.3%.

`COc1ccc(Br)cc1/C=C/C(=O)c1c(O)cccc1OCc1ccc(-c2ccccc2)cc1` [Chalcone 8w, (2E)-1-[2-(Biphenyl-4-Ylmethoxy)-6-Hydroxy-Phenyl]3-(5-Bromo-2-Methoxy-Phenyl)-Propenone]: in the data set with CHO-K1 cells, the “CHOK1 48 h EC10” value turned out to be 6.8 ± 0.3 µM and the EC50 came out at 10.1 ± 1 µM. For the same compound, the “Ability to reduce viral GFP expression” value in the data set with PIV5-GFP (MOI 10, 24 hpi) was “most notable performance”.

As to `COc1ccc(O)cc1/C=C/C(=O)c1c(O)cccc1OCc1ccccc1` [Chalcone 8x, (2E)-1-(2-Benzloxy-6-Hydroxy-Phenyl)-5-(5-Hydroxy-2-Methoxy-Phenyl)-Propenone], in the data set on CHO-K1 cells, the “CHOK1 48 h EC10” value came out at 3.8 ± 0.4 µM and the concentration for a half-maximal effect (EC50) is 6.3 ± 0.3 µM. Besides, the “Ability to reduce viral GFP expression” value in the data set on PIV5-GFP (MOI 10, 24 hpi) is recorded as “most notable performance”.

As to `COc1cc(/C=C/C(=O)c2c(O)cccc2OCc2ccccc2)cc(OC)c1OC` [Chalcone 8z, (2E)-1-(2-Benzloxy-6-Hydroxy-Phenyl)-3-(3,4,5-Trimethoxy-Phenyl)-Propenone], in the data set on CHO-K1 cells, the “CHOK1 48 h EC10” value is listed as 3.8 ± 0.4 µM and the EC50 turned out to be 5.8 ± 0.4 µM. Moreover, the “Ability to reduce viral GFP expression” value in the data set on PIV5-GFP (MOI 10, 24 hpi) is given as “most notable performance”.

Values taken from PMC12467382, “Synthesis and Bioevaluation of Chalcones as Broad-Spectrum Antiviral Compounds Against Single-Stranded RNA Viruses” (Biomolecules, 2025).
